According to PubChem BioAssay (NCI):
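Compound exposure: 48 hours, 5 concentrations, 96-well plates. The concentration for full growth arrest is given as TGI.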

How the values were obtained:
Test in all cases: NCI tumour cell line growth inhibition, 48 h
[1] = tested on: OVCAR-4 ovarian
[2] = tested on: LOX IMVI melanoma
[3] = tested on: HOP-62 NSCLC
[4] = tested on: ACHN renal
[5] = tested on: HCT-116 colon
[6] = tested on: OVCAR-5 ovarian
[7] = tested on: HL-60(TB) leukemia
[8] = tested on: PC-3 prostate
[9] = tested on: DU-145 prostate
[10] = tested on: A498 renal

In the case of `O=C(c1ccc(Cl)cc1)N(C(=S)N1CCN(c2ccccn2)CC1)C1CCCCC1`, the TGI [1] is reported as greater than 100 µM, the TGI [2] is reported as greater than 100 µM and the TGI [3] is reported as greater than 100 µM. The TGI [4] was greater than 100 µM, the TGI [5] was greater than 100 µM and the TGI [6] was greater than 100 µM. It also gave a TGI [7] greater than 100 µM.
For `COc1ccccc1NC(=O)CC(=O)N1N=C(N2c3ccccc3Sc3ccccc32)CC1c1ccccc1` (stereo not drawn), the TGI [8] was greater than 100 µM, the TGI [9] was greater than 100 µM and the TGI [1] was greater than 100 µM. For the same molecule, the TGI [10] was greater than 100 µM, the TGI [3] was greater than 100 µM and the TGI [4] was greater than 100 µM. The TGI [5] was greater than 100 µM, the TGI [6] was greater than 100 µM and the TGI [7] was greater than 100 µM.
`COC(=O)c1c(O)ccc2[nH]c3c(O)c4ccccc4cc3c12` was tested, and the TGI [8] was greater than 100 µM, the TGI [9] was 71 µM and the TGI [1] was 78.4 µM. The TGI [10] was greater than 100 µM, the TGI [3] was 46.7 µM and the TGI [4] was 96.3 µM. The TGI [5] was 47 µM, the TGI [6] was greater than 100 µM and the TGI [7] was 37.5 µM.
In the case of `CCCCCCCCCCCCCCCCOP(=O)(O)OCC(N)C(=O)O` (stereo not drawn), the TGI [8] is reported as 31.1 µM, the TGI [9] is reported as greater than 100 µM and the TGI [1] is reported as 35.6 µM. For the same molecule, the TGI [2] was 28.2 µM, the TGI [10] was 34.8 µM and the TGI [3] was 45.9 µM. The TGI [4] was 32.7 µM, the TGI [5] was 25.4 µM and the TGI [6] was 45.1 µM.
`O=C(c1ccccc1)C1S(=O)(=O)OCCOS1(=O)=O` gave a TGI [1] greater than 100 µM, a TGI [2] greater than 100 µM and a TGI [3] greater than 100 µM. It also gave a TGI [5] greater than 100 µM and a TGI [7] greater than 100 µM.
With `S=c1[nH]n2c(CCCCCCCCc3nnc4sc(=S)[nH]n34)nnc2s1` the TGI [8] was greater than 100 µM, the TGI [9] was greater than 100 µM and the TGI [1] was greater than 100 µM. The TGI [10] was greater than 100 µM, the TGI [3] was greater than 100 µM and the TGI [4] was greater than 100 µM. For the same molecule, the TGI [5] was greater than 100 µM, the TGI [6] was greater than 100 µM and the TGI [7] was greater than 100 µM.
For `CC(=O)Oc1c2c(c3n(c1=O)CCCC3)C(=O)N(c1ccccc1)C2=O`, the TGI [8] was greater than 100 µM, the TGI [9] was greater than 100 µM and the TGI [1] was greater than 100 µM. It also gave a TGI [2] greater than 100 µM, a TGI [3] greater than 100 µM and a TGI [4] greater than 100 µM. The TGI [5] was greater than 100 µM, the TGI [6] was greater than 100 µM and the TGI [7] was greater than 100 µM.
`O=c1ccn(C2OC(CO)C(O)C2F)c(=O)n1Cc1ccccc1` (stereo not drawn) was tested, and the TGI [8] was greater than 100 µM, the TGI [9] was greater than 100 µM and the TGI [2] was greater than 100 µM. The TGI [3] was greater than 100 µM, the TGI [4] was greater than 100 µM and the TGI [5] was greater than 100 µM. For the same molecule, the TGI [6] was greater than 100 µM and the TGI [7] was greater than 100 µM.
`CC(O)(P(=O)(O)O)P(=O)(O)OCC(O)CN1CCOCC1` (stereo not drawn) was tested, and the TGI [8] was greater than 100 µM, the TGI [9] was greater than 100 µM and the TGI [2] was greater than 100 µM. The TGI [10] was greater than 100 µM, the TGI [3] was greater than 100 µM and the TGI [4] was greater than 100 µM. It also gave a TGI [5] greater than 100 µM, a TGI [6] greater than 100 µM and a TGI [7] greater than 100 µM.
For `C/C=C1\CN(C(=O)OC(C)(C)C)C1C(=O)OC(C)(C)C` (stereo not drawn), the TGI [8] was greater than 100 µM, the TGI [1] was greater than 100 µM and the TGI [2] was greater than 100 µM. For the same molecule, the TGI [10] was greater than 100 µM, the TGI [3] was greater than 100 µM and the TGI [4] was greater than 100 µM. For the same molecule, the TGI [5] was greater than 100 µM, the TGI [6] was greater than 100 µM and the TGI [7] was greater than 100 µM.
Work on `O=C(O)c1cnc(-n2[nH]c3c(c2=O)CCCC3)[nH]c1=O` yielded a TGI [8] greater than 100 µM, a TGI [9] greater than 100 µM and a TGI [1] greater than 100 µM. For the same molecule, the TGI [10] was greater than 100 µM, the TGI [4] was greater than 100 µM and the TGI [5] was greater than 100 µM. For the same molecule, the TGI [6] was greater than 100 µM and the TGI [7] was greater than 100 µM.
`CCOC(=O)/C(=C/c1ccc(C(=O)OC)cc1)N(CC)CC` gave a TGI [1] greater than 100 µM, a TGI [2] greater than 100 µM and a TGI [3] greater than 100 µM. The TGI [4] was greater than 100 µM, the TGI [5] was greater than 100 µM and the TGI [6] was greater than 100 µM. For the same molecule, the TGI [7] was 69.4 µM.
